Test results from ChEMBL document CHEMBL4699597, “Tabernaesines A-I, Cytotoxic Aspidosperma-Aspidosperma-Type Bisindole Alkaloids from Tabernaemontana pachysiphon” (J Nat Prod, 2020).

How the values were obtained:
Assay type in all cases: functional, cell-based
[1] = system: SK-MEL-28; assay: Cytotoxicity against human SK-MEL-28 cells assessed as reduction in cell viability after 72 hrs by MTT assay; conditions: SK-MEL-28, 72 h
[2] = system: A549; assay: Cytotoxicity against human A549 cells assessed as reduction in cell viability after 72 hrs by MTT assay; conditions: A549, 72 h
[3] = system: MDA-MB-231; assay: Cytotoxicity against human MDA-MB-231 cells assessed as reduction in cell viability after 72 hrs by MTT assay; conditions: MDA-MB-231, 72 h
[4] = system: T47D; assay: Cytotoxicity against human T47D cells assessed as reduction in cell viability after 72 hrs by MTT assay
[5] = system: SW480; assay: Cytotoxicity against human SW480 cells assessed as reduction in cell viability after 72 hrs by MTT assay; conditions: SW480, 72 h
[6] = system: HepG2; assay: Cytotoxicity against human HepG2 cells assessed as reduction in cell viability after 72 hrs by MTT assay; conditions: HepG2, 72 h

| Compound | IC50 [1] | IC50 [2] | IC50 [3] | IC50 [4] | IC50 [5] | IC50 [6] |
| --- | --- | --- | --- | --- | --- | --- |
| CC[C@]1(O)C[C@@H]2CN(CCc3c([nH]c4ccccc34)[C@@](C(=O)OC)(c3cc4c(cc3OC)N(C)[C@H]3[C@@](O)(C(=O)OC)[C@H](OC(C)=O)[C@]5(CC)C=CCN6CC[C@]43[C@@H]65)C2)C1 [VINBLASTINE] | 0.0733 µM | 0.021 µM | 0.0425 µM | 0.0103 µM | 0.0325 µM | 0.0093 µM |
| CC[C@@]12C[C@H]3C[C@@]4(CN5CC[C@]67C(=C(C(=O)OC)C[C@@]8(CCO[C@@H]48)[C@H]56)Nc4ccccc47)CN4c5ccccc5[C@@]5(CCN(C[C@H]6O[C@H]61)[C@@H]25)[C@]34O | > 10 µM | > 10 µM | 8.3 µM | > 10 µM | > 10 µM | > 10 µM |
| COC(=O)C1=C2Nc3ccccc3[C@@]23CCN2C[C@]4(C[C@@H]5C[C@]67CC(=O)O[C@H]6CCN6CC[C@@]8(c9cccc(OC)c9N(C4)[C@@]58O)[C@@H]67)[C@@H]4OCC[C@]4(C1)[C@H]23 | > 10 µM | > 10 µM | > 10 µM | > 10 µM | > 10 µM | > 10 µM |
| COC(=O)C1=C2Nc3ccccc3[C@@]23CCN2CC(CC4=C[C@@]5(CCO)CC(C(=O)OC)=C6Nc7ccccc7[C@@]67CCN(C4)[C@@H]57)=C[C@@](CCO)(C1)[C@H]23 | > 10 µM | > 10 µM | > 10 µM | > 10 µM | > 10 µM | > 10 µM |
| CC[C@@]12CC3=C4N(C[C@]5(C3)CN3CC[C@]67C(=C(C(=O)OC)C[C@@]8(CCO[C@@H]58)[C@H]36)Nc3ccccc37)c3ccccc3[C@@]43CCN(C[C@H]4O[C@H]41)[C@@H]23 | > 10 µM | > 10 µM | > 10 µM | > 10 µM | > 10 µM | > 10 µM |
| CC[C@@]12C[C@H]3C[C@]4(CN5CC[C@]67C(=C(C(=O)OC)C[C@@]8(CCO[C@@H]48)[C@H]56)Nc4ccccc47)CN4c5ccccc5[C@@]5(CCN(C[C@H](O)[C@H]1O)[C@@H]25)[C@]34O | > 10 µM | > 10 µM | > 10 µM | 9.5 µM | > 10 µM | > 10 µM |
| COC(=O)C1=C2Nc3ccccc3[C@@]23CCN2C[C@]4(C[C@@H]5C[C@]67CC(=O)O[C@H]6CCN6CC[C@@]8(c9cccc(OC)c9N(C4)[C@@H]58)[C@@H]67)[C@@H]4OCC[C@]4(C1)[C@H]23 [DEOXYVOBSTUSINE LACTONE] | > 10 µM | > 10 µM | > 10 µM | > 10 µM | > 10 µM | > 10 µM |
| CCN(CC)Cc1ccc2c(c1O)N1C[C@]3(C[C@@H]4C[C@]56CC(=O)O[C@H]5CCN5CC[C@@]2([C@@H]56)[C@]41O)CN1CC[C@]24C(=C(C(=O)OC)C[C@@]5(CCO[C@@H]35)[C@H]12)Nc1ccccc14 | > 10 µM | > 10 µM | > 10 µM | > 10 µM | > 10 µM | > 10 µM |
| CC[C@@]12C[C@H]3C[C@]4(CN5CC[C@]67C(=C(C(=O)OC)C[C@@]8(CCO[C@@H]48)[C@H]56)Nc4ccccc47)CN4c5ccccc5[C@@]5(CCN(C[C@H](O)[C@H]1O)[C@@H]25)[C@H]34 | 6.7 µM | > 10 µM | > 10 µM | 8.7 µM | 7.8 µM | 2.5 µM |
| CCN(CC)Cc1ccc2c(c1O)N1C[C@]3(C[C@@H]4C[C@]56CCO[C@H]5CCN5CC[C@@]2([C@@H]56)[C@]41O)CN1CC[C@]24C(=C(C(=O)OC)C[C@@]5(CCO[C@@H]35)[C@H]12)Nc1ccccc14 | 8.3 µM | > 10 µM | > 10 µM | > 10 µM | > 10 µM | 7.4 µM |
| CC[C@@]12C[C@H]3C[C@]4(CN5CC[C@]67C(=C(C(=O)OC)C[C@@]8(CCO[C@@H]48)[C@H]56)Nc4ccccc47)CN4c5ccccc5[C@@]5(CCN(C[C@H]6O[C@H]61)[C@@H]25)[C@H]34 | > 10 µM | > 10 µM | > 10 µM | > 10 µM | > 10 µM | > 10 µM |
| CC[C@@]12C[C@H]3C[C@@]4(CN5c6ccccc6[C@@]6(CCN(C[C@H]7O[C@H]71)[C@@H]26)[C@H]35)C(=O)N1CC[C@]23C(=C(C(=O)OC)C[C@@]5(CCO[C@@H]45)[C@H]12)Nc1ccccc13 | 6.8 µM | > 10 µM | > 10 µM | 9.8 µM | 9.8 µM | 6.3 µM |
| COC(=O)C1=C2Nc3ccccc3[C@@]23CCN2C[C@]4(C[C@@H]5C[C@]67CC(=O)O[C@H]6CCN6CC[C@@]8(c9cccc(O)c9N(C4)[C@@]58O)[C@@H]67)[C@@H]4OCC[C@]4(C1)[C@H]23 | > 10 µM | > 10 µM | > 10 µM | > 10 µM | > 10 µM | > 10 µM |
| CC[C@@]12C[C@H]3C[C@@]4(CN5CC[C@]67C(=C(C(=O)OC)C[C@@]8(CCO[C@@H]48)[C@H]56)Nc4ccccc47)CN4c5ccccc5[C@@]5(CCN(C[C@H](O)[C@H]1O)[C@@H]25)[C@]34O | > 10 µM | > 10 µM | > 10 µM | > 10 µM | > 10 µM | > 10 µM |
| CC[C@@]12C[C@H]3C[C@@]4(CN5CC[C@]67C(=C(C(=O)OC)C[C@@]8(CCO[C@@H]48)[C@H]56)Nc4ccccc47)CN4c5ccccc5[C@@]5(CCN(C[C@H](O)[C@H]1O)[C@@H]25)[C@H]34 | > 10 µM | > 10 µM | > 10 µM | > 10 µM | > 10 µM | > 10 µM |
| CC[C@@]12C[C@H]3C[C@@]4(CN5CC[C@]67C(=C(C(=O)OC)C[C@@]8(CCO[C@@H]48)[C@H]56)Nc4ccccc47)CN4c5ccccc5[C@@]5(CCN(C[C@H]6O[C@H]61)[C@@H]25)[C@H]34 | > 10 µM | > 10 µM | > 10 µM | > 10 µM | > 10 µM | > 10 µM |
| CC[C@@]12C[C@]3(CC4=C5N(C3)c3ccccc3[C@@]53CCN5C[C@H]6O[C@H]6[C@@](CC)(C4)[C@H]53)C3=Nc4ccccc4[C@@]34CCN(C[C@H]3O[C@H]31)[C@@H]24 | > 10 µM | > 10 µM | > 10 µM | > 10 µM | > 10 µM | > 10 µM |
| COC(=O)C1=C2Nc3ccccc3[C@@]23CCN2C[C@]4(C[C@@H]5C[C@]67CCO[C@H]6CCN6CC[C@@]8(c9cccc(OC)c9N(C4)[C@@]58O)[C@@H]67)[C@@H]4OCC[C@]4(C1)[C@H]23 | > 10 µM | > 10 µM | > 10 µM | > 10 µM | > 10 µM | > 10 µM |
| CC[C@@]12C[C@H]3C[C@]4(CN5CC[C@]67C(=C(C(=O)OC)C[C@@]8(CCO[C@@H]48)[C@H]56)Nc4ccccc47)CN4c5ccccc5[C@@]5(CCN(C[C@H]6O[C@H]61)[C@@H]25)[C@]34O | 6.4 µM | > 10 µM | > 10 µM | 5.5 µM | 7.2 µM | 9.6 µM |
